Source: patent US11072616B2, “Cyclic peptides targeting alpha-4-beta-7 integrin” (Zealand Pharma A/S, priority 2015, dated 2021)

target: T1, integrin α4β7 (Homo sapiens, UniProt P13612+P26010); experiment: Integrin α4β7—MAdCAM-1 competition assay (ELISA); format: binding; settings: ratio a4b1 ELISA IC50 / a4b7 ELISA IC50
T1 sequence (P13612 34-977 limits assumed): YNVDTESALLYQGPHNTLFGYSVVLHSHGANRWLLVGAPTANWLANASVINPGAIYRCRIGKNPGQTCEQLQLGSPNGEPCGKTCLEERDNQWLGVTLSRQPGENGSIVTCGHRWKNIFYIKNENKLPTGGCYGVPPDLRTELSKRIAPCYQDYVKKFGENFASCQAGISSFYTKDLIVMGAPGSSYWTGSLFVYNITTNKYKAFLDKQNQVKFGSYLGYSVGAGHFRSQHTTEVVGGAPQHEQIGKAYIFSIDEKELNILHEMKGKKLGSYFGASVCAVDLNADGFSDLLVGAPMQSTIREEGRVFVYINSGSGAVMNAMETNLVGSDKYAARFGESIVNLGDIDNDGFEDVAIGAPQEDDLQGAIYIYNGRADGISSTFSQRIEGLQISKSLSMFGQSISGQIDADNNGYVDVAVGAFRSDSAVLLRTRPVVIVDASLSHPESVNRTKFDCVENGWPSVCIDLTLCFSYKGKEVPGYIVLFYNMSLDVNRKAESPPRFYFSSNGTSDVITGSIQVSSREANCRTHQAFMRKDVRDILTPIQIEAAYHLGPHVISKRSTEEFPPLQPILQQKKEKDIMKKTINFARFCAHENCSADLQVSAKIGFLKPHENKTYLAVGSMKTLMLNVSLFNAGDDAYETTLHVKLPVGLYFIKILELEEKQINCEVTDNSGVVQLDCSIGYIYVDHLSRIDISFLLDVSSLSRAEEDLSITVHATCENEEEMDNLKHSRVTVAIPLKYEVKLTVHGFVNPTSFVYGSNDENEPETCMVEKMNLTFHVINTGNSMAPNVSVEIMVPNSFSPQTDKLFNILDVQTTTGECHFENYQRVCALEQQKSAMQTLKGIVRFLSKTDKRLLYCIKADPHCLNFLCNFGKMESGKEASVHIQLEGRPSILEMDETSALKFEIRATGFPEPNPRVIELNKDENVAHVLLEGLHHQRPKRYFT
T1 sequence (P26010 20-723 limits assumed): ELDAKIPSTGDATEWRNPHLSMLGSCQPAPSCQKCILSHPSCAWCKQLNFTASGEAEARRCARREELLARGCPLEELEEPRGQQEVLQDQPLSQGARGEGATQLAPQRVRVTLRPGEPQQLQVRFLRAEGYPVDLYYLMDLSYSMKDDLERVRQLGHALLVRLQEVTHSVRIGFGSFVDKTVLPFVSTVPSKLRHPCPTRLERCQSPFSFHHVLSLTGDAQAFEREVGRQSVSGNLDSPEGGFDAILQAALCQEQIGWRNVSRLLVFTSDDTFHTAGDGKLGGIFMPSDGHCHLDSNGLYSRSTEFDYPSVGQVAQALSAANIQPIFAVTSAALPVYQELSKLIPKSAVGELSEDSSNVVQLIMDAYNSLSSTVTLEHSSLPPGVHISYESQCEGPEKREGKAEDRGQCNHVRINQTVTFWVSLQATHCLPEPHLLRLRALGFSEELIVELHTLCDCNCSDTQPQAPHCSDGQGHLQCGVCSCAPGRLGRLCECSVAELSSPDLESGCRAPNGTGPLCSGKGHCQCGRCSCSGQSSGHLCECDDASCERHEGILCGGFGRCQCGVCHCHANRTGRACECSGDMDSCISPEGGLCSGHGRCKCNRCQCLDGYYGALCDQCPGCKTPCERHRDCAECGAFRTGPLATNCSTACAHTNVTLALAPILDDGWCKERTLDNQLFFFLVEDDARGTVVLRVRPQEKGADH
Protocol: Integrin α4β7—MAdCAM-1 Competition Assay
The plate was incubated at 4° C. overnight. […] The plate was then incubated for 1 hour at room temperature. The plate was washed three times with wash buffer (50 mM Tris, 100 mM NaCl, 1 mM MnCl2, 0.05% Tween). To each well, 50 μl of compound diluted in assay buffer was added by transfer from a compound serial dilution plate. […] The plate was incubated at room temperature with shaking for 2 hours to reach binding equilibrium. Then the plate was washed three times in wash buffer and 100 μl anti-human IgG Fc specific-horseradish peroxidase (HRP) (Abcam, Ab97225) diluted at 1:2000 in assay buffer was added to each well. The plate was incubated at room temperature for 1 hour under agitation. The plates were then washed three times and 100 μl of 1,3′,5,5′-tetramethylbenxidie (TMB) was then added to each well.

SMILES	Selectivity ELISA
Cc1cccc(C)c1-c1ccc(C[C@@H]2NC(=O)[C@@H]3CCCN3[C@H](C(=O)NC(C)(C)C)[C@H](C)NC(=O)[C@H]([C@@H](C)O)NC(=O)[C@H](CC(=O)O)NC(=O)[C@H](CC(C)C)NC(=O)C[C@H](CCCCN)NC2=O)cc1 [Compound 268]	24.6
CC(C)C[C@@H]1NC(=O)C[C@H](CCCCN)NC(=O)C2(CCNCC2)NC(=O)[C@@H]2CCCN2[C@H](C(=O)NC(C)(C)C)[C@H](C)NC(=O)[C@H]([C@@H](C)O)NC(=O)[C@H](CC(=O)O)NC1=O [Compound 275]	7.7
CC(C)C[C@@H]1NC(=O)[C@@H]2CCN2C(=O)C[C@H](CCCCN)NC(=O)[C@@H]2CCCN2[C@H](C(=O)NC(C)(C)C)[C@H](C)NC(=O)[C@H]([C@@H](C)O)NC(=O)[C@H](CC(=O)O)NC1=O [Compound 319]	4.8
CC(C)C[C@@H]1NC(=O)C[C@H](CCCCN)NC(=O)[C@H](Cc2ccccc2-c2ccc(N3CCNCC3)cc2)NC(=O)[C@@H]2CCCN2[C@H](C(=O)NC(C)(C)C)[C@H](C)NC(=O)[C@H]([C@@H](C)O)NC(=O)[C@H](CC(=O)O)NC1=O [Compound 271]	34.6
CC(C)C[C@@H]1NC(=O)[C@H](Cc2c[nH]cn2)NC(=O)[C@@H]2CCCN2[C@H](C(=O)NC(C)(C)C)[C@@H](CSc2ccccc2)NC(=O)[C@H](C(C)C)NC(=O)[C@H](CC(=O)O)NC1=O [Compound 2]	1.697
COc1ccc(-c2ccccc2C[C@@H]2NC(=O)[C@@H]3CCCN3[C@H](C(=O)NC(C)(C)C)[C@H](C)NC(=O)[C@H]([C@@H](C)O)NC(=O)[C@H](CC(=O)O)NC(=O)[C@H](CC(C)C)NC(=O)[C@H]3CCCCN3C2=O)cc1 [Compound 137]	7.8
CC[C@H](C)[C@@H]1NC(=O)[C@H](CC(=O)O)NC(=O)[C@H](CC(C)C)NC(=O)C[C@@H](CCCCN)NC(=O)[C@H](Cc2ccccc2)NC(=O)[C@@H]2CCCN2[C@H](C(=O)NC(C)(C)C)[C@H](C)NC1=O [Compound 220]	18.2
Cc1cccc(C)c1-c1cccc(C[C@@H]2NC(=O)[C@@H]3CCCN3[C@H](C(=O)NC(C)(C)C)[C@H](C)NC(=O)[C@H]([C@@H](C)O)NC(=O)[C@H](CC(=O)O)NC(=O)[C@H](CC(C)C)NC(=O)C[C@H](CCCCN)NC2=O)c1 [Compound 265]	46.2
CC(C)C[C@@H]1NC(=O)C[C@H](CCCCN)NC(=O)[C@H](CC2CCCCC2)NC(=O)[C@@H]2CCCN2[C@H](C(=O)NC(C)(C)C)[C@H](C)NC(=O)[C@H]([C@@H](C)O)NC(=O)[C@H](CC(=O)O)NC1=O [Compound 210]	16.0
CCO[C@H](C)[C@@H]1NC(=O)[C@H](CC(=O)O)NC(=O)[C@H](CC(C)C)NC(=O)[C@H](Cc2ccccc2)NC(=O)[C@@H]2CCCN2[C@H](C(=O)NC(C)(C)C)[C@H](C)NC1=O [Compound 41]	2.5
CC(C)C[C@@H]1NC(=O)[C@@H](CCCN(C)C)NC(=O)[C@@H]2CCCN2[C@H](C(=O)NC(C)(C)C)[C@H](C)NC(=O)[C@H]([C@@H](C)O)NC(=O)[C@H](CC(=O)O)NC1=O [Compound 83]	6.9
CC(C)C[C@@H]1NC(=O)CN(C)C(=O)[C@H](Cc2csc(-c3cccnc3)n2)NC(=O)[C@@H]2CCCN2[C@H](C(=O)NC(C)(C)C)[C@H](C)NC(=O)[C@H]([C@@H](C)O)NC(=O)[C@H](CC(=O)O)NC1=O [Compound 181]	12.6
CC(C)C[C@@H]1NC(=O)c2ccc(Br)c(c2)CNC(=O)[C@H](Cc2ccc(O)cc2)NC(=O)[C@@H]2CCCN2[C@H](C(=O)NC(C)(C)C)[C@H](C)NC(=O)[C@H]([C@@H](C)O)NC(=O)[C@H](CC(=O)O)NC1=O [Compound 336]	5.6
CC(C)C[C@@H]1NC(=O)[C@H](CC2CCCCC2)NC(=O)[C@@H]2CCCN2[C@H](C(=O)NC(C)(C)C)[C@H](C)NC(=O)[C@H]([C@@H](C)O)NC(=O)[C@H](CC(=O)O)NC1=O [Compound 7]	1.6
CC(C)C[C@@H]1NC(=O)[C@H]2CCCCN2C(=O)[C@@H]2CCCN2[C@H](C(=O)NC(C)(C)C)[C@H](C)NC(=O)[C@H]([C@@H](C)O)NC(=O)[C@H](CC(=O)O)NC1=O [Compound 51]	3.3
CCC[C@@H]1NC(=O)[C@@H]2CCCN2[C@H](C(=O)NC(C)(C)C)[C@H](C)NC(=O)[C@H]([C@@H](C)O)NC(=O)[C@H](CC(=O)O)NC(=O)[C@H](CC(C)C)NC1=O [Compound 71]	4.4
CC(C)C[C@@H]1NC(=O)C[C@H](CCCCN)NC(=O)[C@H](Cc2ccc(I)cc2)NC(=O)[C@@H]2CCCN2[C@H](C(=O)NC(C)(C)C)[C@H](C)NC(=O)[C@H]([C@@H](C)O)NC(=O)[C@H](CC(=O)O)NC1=O [Compound 260]	58.1
Cc1cccc(C)c1-c1ccccc1C[C@@H]1NC(=O)[C@@H]2CCCN2[C@H](C(=O)NC(C)(C)C)[C@H](C)NC(=O)[C@H]([C@@H](C)O)NC(=O)[C@H](CC(=O)O)NC(=O)[C@H](CC(C)C)NC(=O)C[C@H](CCCCN)NC1=O [Compound 272]	58.1
COc1ccc(C[C@@H]2NC(=O)[C@@H]3CCCN3[C@H](C(=O)NC(C)(C)C)[C@H](C)NC(=O)[C@H]([C@@H](C)O)NC(=O)[C@H](CC(=O)O)NC(=O)[C@H](CC(C)C)NC(=O)[C@H]3CCCN3C2=O)cc1OC [Compound 127]	7.8
CC(C)C[C@@H]1NC(=O)[C@H](Cc2ccc(-c3ccccc3)cc2)NC(=O)[C@@H]2C[C@@H](F)CN2[C@H](C(=O)NC(C)(C)C)[C@H](C)NC(=O)[C@H]([C@@H](C)O)NC(=O)[C@H](CC(=O)O)NC1=O [Compound 46]	2.4
CC(C)C[C@@H]1NC(=O)CN(C)C(=O)[C@H](Cc2csc(-c3ccccn3)n2)NC(=O)[C@@H]2CCCN2[C@H](C(=O)NC(C)(C)C)[C@H](C)NC(=O)[C@H]([C@@H](C)O)NC(=O)[C@H](CC(=O)O)NC1=O [Compound 179]	15.2
C=CCOc1ccc(C[C@@H]2NC(=O)[C@@H]3CCCN3[C@H](C(=O)NC(C)(C)C)[C@H](C)NC(=O)[C@H]([C@@H](C)O)NC(=O)[C@H](CC(=O)O)NC(=O)[C@H](CC(C)C)NC(=O)[C@@H](C(C)C)NC2=O)cc1 [Compound 166]	7.7
CC(C)C[C@@H]1NC(=O)[C@H]2CCCN2C(=O)[C@H](Cc2cc(F)c(F)c(F)c2)NC(=O)[C@@H]2CCCN2[C@H](C(=O)NC(C)(C)C)[C@H](C)NC(=O)[C@H]([C@@H](C)O)NC(=O)[C@H](CC(=O)O)NC1=O [Compound 128]	11.4
CC(C)C[C@@H]1NC(=O)[C@@H](CCCCN)NC(=O)[C@H](Cc2ccc(-c3ccccc3)cc2)NC(=O)[C@@H]2CCCN2[C@H](C(=O)NC(C)(C)C)[C@H](C)NC(=O)[C@H]([C@@H](C)O)NC(=O)[C@H](CC(=O)O)NC1=O [Compound 110]	21.3
COc1cccc(-c2ccccc2C[C@@H]2NC(=O)[C@@H]3CCCN3[C@H](C(=O)NC(C)(C)C)[C@H](C)NC(=O)[C@H]([C@@H](C)O)NC(=O)[C@H](CC(=O)O)NC(=O)[C@H](CC(C)C)NC(=O)[C@H]3CCCCN3C2=O)c1 [Compound 136]	6.6
